Experiments:
Assay in all cases: relative viability (nuclei count vs DMSO), 5 days (fraction); higher = more cells survive
[1] = compound: C1=CC2=NC=CN=C2C=C1/C=C/3\C(=O)NC(=O)S3 + CS(=O)(=O)N1CCN(Cc2cc3nc(-c4cccc5[nH]ncc45)nc(N4CCOCC4)c3s2)CC1 [Pictilisib] (partner 1 µM)
Summary of the method: (§1)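 Lung cancer cell lines were seeded in 1536-well plates and dosed by pin tool the next day, with either a single drug or a fixed anchor-drug dose combined with five library-drug doses (not always all listed) spaced in √10 steps. Five days later, one step fixed the cells and stained their nuclei (final 0.05% Triton X-100, 1% formaldehyde, 1 ug/ml Hoechst), and nuclei were counted on 4× images. Relative viability is the nuclei count in treated wells divided by the count in vehicle wells, and each value is the median of duplicate plates.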

[2] = compound: C1=CC2=NC=CN=C2C=C1/C=C/3\C(=O)NC(=O)S3 + Nc1ncn([C@H]2C[C@H](O)[C@@H](CO)O2)c(=O)n1 [Decitabine] (partner 2 µM)
Summary of the method: as §1

BGJ398 + Trametinib = compound: CCN1CCN(c2ccc(Nc3cc(N(C)C(=O)Nc4c(Cl)c(OC)cc(OC)c4Cl)ncn3)cc2)CC1 [BGJ398] + CC(=O)Nc1cccc(-n2c(=O)n(C3CC3)c(=O)c3c(Nc4ccc(I)cc4F)n(C)c(=O)c(C)c32)c1 [Trametinib] (partner 0.02 µM)
Summary of the method: as §1

BGJ398 + Crizotinib = compound: CCN1CCN(c2ccc(Nc3cc(N(C)C(=O)Nc4c(Cl)c(OC)cc(OC)c4Cl)ncn3)cc2)CC1 [BGJ398] + C[C@@H](Oc1cc(-c2cnn(C3CCNCC3)c2)cnc1N)c1c(Cl)ccc(F)c1Cl [Crizotinib] (partner 1 µM)
Summary of the method: as §1

Work on UMC-11 yielded a relative viability ([1]; first compound 0.02 µM) of 0.839, a relative viability ([1]; first compound 0.06325 µM) of 0.914 and a relative viability ([1]; first compound 0.2 µM) of 0.882. The relative viability ([1]; first compound 0.6325 µM) was 0.786, the relative viability ([1]; first compound 2 µM) was 0.952 and the relative viability ([2]; first compound 0.02 µM) was 0.695. For the same cell line, the relative viability ([2]; first compound 0.06325 µM) was 0.665, the relative viability ([2]; first compound 0.2 µM) was 0.681 and the relative viability ([2]; first compound 0.6325 µM) was 0.531. For the same cell line, the relative viability ([2]; first compound 2 µM) was 0.69, the relative viability (BGJ398 + Trametinib; first compound 0.01 µM) was 0.671 and the relative viability (BGJ398 + Trametinib; first compound 0.03162 µM) was 0.749. The relative viability (BGJ398 + Trametinib; first compound 0.1 µM) was 0.808, the relative viability (BGJ398 + Trametinib; first compound 0.3162 µM) was 0.622 and the relative viability (BGJ398 + Trametinib; first compound 1 µM) was 0.55. It also gave a relative viability (BGJ398 + Crizotinib; first compound 0.01 µM) of 0.507, a relative viability (BGJ398 + Crizotinib; first compound 0.03162 µM) of 0.585 and a relative viability (BGJ398 + Crizotinib; first compound 0.1 µM) of 0.539. It also gave a relative viability (BGJ398 + Crizotinib; first compound 0.3162 µM) of 0.579 and a relative viability (BGJ398 + Crizotinib; first compound 1 µM) of 0.53.
